Assay results taken from patent US10189824B2, “Pyrimidine-diamine dual HSP90/TRAP1 inhibitors” (CalAsia Pharmaceuticals, Inc., priority 2014, dated 2019).

Key:
TRAP1 = target: T1, TRAP1 (Homo sapiens, UniProt Q12931); assay: Fluorescence polarization (FP) displacement assay, GA-FITC, TRAP1; assay type: binding; settings: FP displacement of GA-FITC, 200 nM TRAP1; for Ki: NA: Not active, read-out: Biochemical efficacy TRAP1 Ki
T1 construct: Recombinant full-length human Hsp90 and 459 TRAP1 were cloned; 6His (TEV-cleavable) (N); made in house; host or cells: E. coli BL21 (DE3)
T1 sequence (Q12931 60-704): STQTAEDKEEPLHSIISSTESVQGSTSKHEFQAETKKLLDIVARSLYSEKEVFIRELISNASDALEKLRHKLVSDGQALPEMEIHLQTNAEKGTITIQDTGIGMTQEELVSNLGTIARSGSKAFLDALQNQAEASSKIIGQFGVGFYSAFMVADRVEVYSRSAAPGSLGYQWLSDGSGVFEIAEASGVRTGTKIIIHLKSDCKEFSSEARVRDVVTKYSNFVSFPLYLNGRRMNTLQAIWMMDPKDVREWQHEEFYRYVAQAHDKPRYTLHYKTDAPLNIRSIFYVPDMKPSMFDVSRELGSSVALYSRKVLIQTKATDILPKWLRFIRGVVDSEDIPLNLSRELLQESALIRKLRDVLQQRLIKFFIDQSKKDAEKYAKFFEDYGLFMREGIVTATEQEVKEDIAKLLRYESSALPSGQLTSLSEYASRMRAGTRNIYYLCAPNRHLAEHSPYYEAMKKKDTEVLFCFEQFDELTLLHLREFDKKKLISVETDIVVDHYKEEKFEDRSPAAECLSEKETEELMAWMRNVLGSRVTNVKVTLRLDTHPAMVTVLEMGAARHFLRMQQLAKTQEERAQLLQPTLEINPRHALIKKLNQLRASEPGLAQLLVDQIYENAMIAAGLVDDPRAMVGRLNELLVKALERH
Experimental: (§1) Prior to transforming into BL21 (DE3) all the cloned vectors were sequence confirmed. Expressed proteins were purified using NTA resin (Life Technologies) followed by size exclusion chromatography using FPLC. The molecular mass of the purified proteins was confirmed by MALDI-TOF and assessed for purity by SDS-PAGE.
(§2) The assay conditions were 20 mM HEPES, pH-7.5, 50 mM KCl, 5 mM MgCl2, 20 mM sodium molybdate, 2 mM DTT, 0.01% NP40, 100 ug/ml BSA, 50 nM Hsp90 or 200 nM TRAP1, 1% DMSO, and 8 nM (for Hsp90) or 20 nM (for TRAP1) GA-FITC in the presence of increasing concentrations of test compound.

U251MG cells [1] = assay: TMRE assay, cell-based (mitochondrial membrane potential); settings: for Decrease of specific TMRE fluorescence vs untreated: U251MG cells, 48 h
Experimental: […] TMRE (200 nM) was then added to wells for 30 min and monitored for changes in fluorescence activity either by fluorescence microscopy using an inverted Zeiss LSM 710 confocal microscope or by spectrophotometry using a fluorescence plate reader (544ex/590em) after washing the cells. Specific TMRE fluorescence was calculated by comparison to matched wells pretreated with 20 uM FCCP for 10 min prior to addition of TMRE. For mitochondria assays, untreated U251MG cells grown to confluence in T75 culture flasks. Mitochondria from these cells were isolated using a mitochondria isolation kit (Thermo Scientific) and loaded with 0.1 mM TMRE in kit buffer at 37° C. for 20 min. After washing, the TMRE-loaded mitochondria (2 ug per well) were incubated in a 96 well black plate with test compounds and monitored kinetically at 30° C. for changes in fluorescence using a fluorescence plate reader (ex 544/em 590). The fluorescence intensity after treatment with 20 um FCCP in control wells corresponded to a fully depolarized state.
Mitochondrial integrity was evaluated using Tetramethylrhodamine ethyl ester (TMRE) assay. A TMRE assay kit (Abcam) was used to evaluate Hsp90/TRAP1 inhibitor-induced changes in mitochondrial membrane potential. […] TMRE (200 nM) was then added to wells for 30 min and monitored for changes in fluorescence activity using a fluorescence plate reader (ex544/em 590) after washing the cells. Specific TMRE fluorescence was calculated by comparison to matched wells pretreated with the depolarizing proton ionophore carbonyl cyanide 4-(trifluoromethoxy)phenylhydrazone (FCCP) at 20 uM 10 min prior to addition of TMRE. For mitochondria assays, mitochondria was isolated using a kit from Thermoscientific and loaded with 0.1 mM TMRE. TMRE-loaded mitochondria (2 μg per well) were incubated with test compounds and monitored kinetically at 30° C. for changes in fluorescence using a flurorescence plate reader (ex 544/em 590) (FIGS. 6A, 9A and 12).

U251MG cells [2] = assay: Cell viability assay, ATP quantitation (ADP-Glo); assay type: cell-based; settings: Homo sapiens, U-251; 72 h at 37° C.; FIG. 1B
Experimental: U251MG cells were maintained at 37° C. and 5% CO2 in RPMI media supplemented with glutamax and containing 10% heat-inactivated fetal bovine serum and 1% penicillin/streptomycin (Life Sciences).
A cell counting kit (CCK-8 assay kit, Dojindo) and an ADP-Glo assay (Life Technologies) were used to quantitate the effects of test compounds on cell viability. U251MG cells were seeded into 96 well tissue culture plates and incubated for 16 h at 37° C. with 5% CO2. Increasing concentrations of test compounds were added to the wells from DMSO-containing stock solutions to a final DMSO concentration of 0.05% and incubated for 72 hr at 37° C. CCK-8 kit reagent or ADP-GLO reagent were then added to the wells and absorbance was measured at 450 nm (for the CCK assay) using a Synergy HT micro-titer plate reader (Biotek) or luminescence was measured (for the ADP-GLO assay) using a POLARstar Omega micro-titer plate reader (BMG).

human Hsp90 = assay: Fluorescence polarization (FP) displacement assay, GA-FITC, Hsp90; assay type: binding; settings: FP displacement of GA-FITC, 50 nM Hsp90; for Ki: read-out: Biochemical efficacy HSP90 Ki
Experimental: as §1, §2

GBM43 = assay: Cellular efficacy in Mayo Clinic GBM PDX cell line GBM43; assay type: cell-based
Experimental: Short-term explant cultures from PDX models were seeded into 96-well Perfecta3D hanging drop plates to form a single spheroid in each well after 2 days. The spheroids were transferred to a round bottom 96 well plate by centrifugation and then incubated with graded concentrations of test compound (8 spheroids per compound concentration). Spheroid volumes were monitored every 6 hours over the course of 5 days using the IncuCyte system (Essen BioScience, MI, US) to provide a growth curve akin to a tumor regrowth assay.

[3] = system: mitochondria isolated from HEI193 cells; assay: Analysis of drug accumulation in the mitochondria; assay type: in vitro ADME, human; settings: 20 uM
Experimental: Mitochondria (100 μg) isolated from MDA-MB-231 and […] tumor cell lines were incubated with 20 μM CAP01088 for 30 mins at 30° C. in mitochondrial incubation buffer (MIB: 0.2M sucrose, 10 mM Tris-MOPS, pH 7.4, 5 mM succinaye, 1 mM Pi, 2 μM rotenone, and 10 μM EGTA with modifications as needed). The mitochondria were chilled on ice and collected by centrifugation at 8000 g for 10 min. The supernatant was collected and the mitochondrial pellet was washed twice with MIB and dissolved in lysis buffer (acetonitrile/methanol, 3:1). The concentration of CAP01088 in supernatant and mitochondrial extract was analyzed using a Waters HPLC/Mass spectrometer (FIGS. 6B and 9B).

Row | EC50 (GBM43) | IC50 (TRAP1; read-out: Biochemical efficacy TRAP1 IC50) | Accumulation in isolated mitochondria compared to culture medium [3] | IC50 (human Hsp90; read-out: Biochemical efficacy HSP90 IC50) | SMILES | Ki (TRAP1) | Decrease of specific TMRE fluorescence vs untreated (U251MG cells [1]; 5 uM) | Decrease of specific TMRE fluorescence vs untreated (U251MG cells [1]; 50 uM) | IC50 (U251MG cells [2]) | Ki (human Hsp90) | Effect on TMRE fluorescence of U251MG cells (U251MG cells [1]; 2 hour or 4 hr)
1 |  |  |  |  | COc1c(C)cnc(CN(CCc2ccccn2)c2cc(Cl)nc(N)n2)c1C [Compound 1, 6-chloro-4-N-[(4-methoxy-3,5-dimethylpyridin-2yl)methyl]-4-N-[2-(pyridine-2-yl)ethyl]pyrimidine-2,4-amine] | 50.4 nM | 42% | 73% | 2500 nM | 39.4 nM | 
2 | 280 nM | 312 nM | greater than 6 fold | 44 nM | COc1c(C)cnc(CN(CC2(c3ccc(F)cc3)CCOCC2)c2cc(Cl)nc(N)n2)c1C [Compound A, 6-chloro-4-N-{[4-(4-fluorophenyl)oxan-4-yl]methyl}-4-N-[(4-methoxy-3,5-dimethylpyridin-2-yl)methyl]pyrimidine-2,4-diamine] | 39 nM |  |  |  | 11 nM | dose-dependent decrease
